Data on 35 molecules can be found in ChEMBL document CHEMBL5291721, “A preclinical secondary pharmacology resource illuminates target-adverse drug reaction associations of marketed drugs” (Nat Commun, 2023).

Molecules are shown by their SMILES. A value given as a limit tells only on which side of the number the result lay.

Experiment [1] addresses T1, Alpha-2B adrenergic receptor (Homo sapiens, UniProt P18089).
T1 sequence (P18089 whole entry): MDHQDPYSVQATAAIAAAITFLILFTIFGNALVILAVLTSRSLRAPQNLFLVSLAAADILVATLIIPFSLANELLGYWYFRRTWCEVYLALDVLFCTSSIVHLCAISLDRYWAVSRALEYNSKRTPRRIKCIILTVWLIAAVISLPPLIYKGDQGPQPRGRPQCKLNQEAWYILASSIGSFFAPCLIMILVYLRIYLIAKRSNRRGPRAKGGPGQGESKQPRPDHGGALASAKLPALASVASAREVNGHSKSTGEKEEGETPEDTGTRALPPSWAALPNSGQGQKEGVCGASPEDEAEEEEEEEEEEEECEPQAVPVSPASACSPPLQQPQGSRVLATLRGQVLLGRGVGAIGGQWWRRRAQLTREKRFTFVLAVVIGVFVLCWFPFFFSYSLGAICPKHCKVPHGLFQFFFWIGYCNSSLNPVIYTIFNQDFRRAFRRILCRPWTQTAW

The target of a further experiment is T2, Glucocorticoid receptor (Homo sapiens, UniProt P04150).
T2 sequence (P04150 whole entry): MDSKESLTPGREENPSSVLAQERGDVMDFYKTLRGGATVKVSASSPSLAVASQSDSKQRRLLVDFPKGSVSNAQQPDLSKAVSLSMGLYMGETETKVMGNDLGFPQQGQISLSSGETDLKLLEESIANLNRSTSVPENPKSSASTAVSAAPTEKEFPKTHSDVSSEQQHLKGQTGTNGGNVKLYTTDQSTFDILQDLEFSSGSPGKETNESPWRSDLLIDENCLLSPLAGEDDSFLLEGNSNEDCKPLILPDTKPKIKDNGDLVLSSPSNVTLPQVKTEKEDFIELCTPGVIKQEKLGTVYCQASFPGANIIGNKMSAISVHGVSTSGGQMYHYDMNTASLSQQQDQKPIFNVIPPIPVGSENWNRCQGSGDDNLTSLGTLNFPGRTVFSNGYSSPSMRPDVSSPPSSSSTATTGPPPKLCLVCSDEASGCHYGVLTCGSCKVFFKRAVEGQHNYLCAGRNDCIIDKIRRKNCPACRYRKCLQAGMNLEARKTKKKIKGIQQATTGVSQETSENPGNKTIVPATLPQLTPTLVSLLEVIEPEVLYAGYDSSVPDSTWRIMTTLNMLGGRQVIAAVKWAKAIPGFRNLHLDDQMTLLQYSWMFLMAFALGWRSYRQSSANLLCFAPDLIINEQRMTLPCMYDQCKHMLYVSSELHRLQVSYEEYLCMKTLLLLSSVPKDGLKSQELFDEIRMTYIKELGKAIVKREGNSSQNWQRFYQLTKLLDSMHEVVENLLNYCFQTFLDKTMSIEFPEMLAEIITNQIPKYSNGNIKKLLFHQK
It is filed as functional.

The target in experiment [2] is T3, Peroxisome proliferator-activated receptor gamma (Homo sapiens, UniProt P37231).
T3 sequence (P37231 whole entry): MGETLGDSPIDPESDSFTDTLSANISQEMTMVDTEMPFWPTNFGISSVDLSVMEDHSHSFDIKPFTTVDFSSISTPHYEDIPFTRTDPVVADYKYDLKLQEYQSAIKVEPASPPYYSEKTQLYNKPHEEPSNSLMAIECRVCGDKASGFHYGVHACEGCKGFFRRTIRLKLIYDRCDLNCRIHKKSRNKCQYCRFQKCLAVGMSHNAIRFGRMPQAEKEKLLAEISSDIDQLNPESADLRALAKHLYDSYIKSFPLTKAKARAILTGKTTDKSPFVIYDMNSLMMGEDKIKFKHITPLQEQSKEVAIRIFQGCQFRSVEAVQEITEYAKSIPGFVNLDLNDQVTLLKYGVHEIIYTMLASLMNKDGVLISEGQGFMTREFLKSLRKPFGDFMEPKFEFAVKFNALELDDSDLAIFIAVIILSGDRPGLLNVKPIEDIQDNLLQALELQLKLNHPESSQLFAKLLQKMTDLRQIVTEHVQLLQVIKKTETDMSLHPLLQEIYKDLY
It counts as functional.

Experiment [3] deals with T4, Neuropeptide Y receptor type 2 (Homo sapiens, UniProt P49146).
T4 sequence (P49146 whole entry): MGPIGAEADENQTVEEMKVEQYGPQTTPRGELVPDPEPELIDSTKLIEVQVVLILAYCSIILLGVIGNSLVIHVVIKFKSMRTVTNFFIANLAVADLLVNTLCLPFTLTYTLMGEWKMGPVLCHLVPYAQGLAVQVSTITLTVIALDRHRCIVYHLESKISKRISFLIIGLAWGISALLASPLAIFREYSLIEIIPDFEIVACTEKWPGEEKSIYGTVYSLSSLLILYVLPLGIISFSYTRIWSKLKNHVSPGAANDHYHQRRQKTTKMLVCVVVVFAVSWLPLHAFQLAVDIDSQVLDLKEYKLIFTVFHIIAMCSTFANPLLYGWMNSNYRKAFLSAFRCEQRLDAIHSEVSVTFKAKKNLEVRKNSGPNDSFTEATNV

In experiment [4] the target is T5, Muscarinic acetylcholine receptor M2 (Homo sapiens, UniProt P08172).
T5 sequence (P08172 whole entry): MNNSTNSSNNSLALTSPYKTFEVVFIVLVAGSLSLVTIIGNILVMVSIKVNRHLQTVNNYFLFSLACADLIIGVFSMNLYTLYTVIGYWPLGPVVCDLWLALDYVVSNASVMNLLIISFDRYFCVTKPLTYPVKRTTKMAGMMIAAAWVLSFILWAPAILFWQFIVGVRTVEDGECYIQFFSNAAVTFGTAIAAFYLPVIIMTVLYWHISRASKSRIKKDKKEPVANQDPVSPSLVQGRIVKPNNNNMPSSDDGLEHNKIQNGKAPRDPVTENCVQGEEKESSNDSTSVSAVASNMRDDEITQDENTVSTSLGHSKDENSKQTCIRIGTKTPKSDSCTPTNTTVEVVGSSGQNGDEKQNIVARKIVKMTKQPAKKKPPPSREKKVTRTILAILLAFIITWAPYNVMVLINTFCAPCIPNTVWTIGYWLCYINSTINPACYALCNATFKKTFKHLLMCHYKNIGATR
Note: assay procedure not described here.

Broadly, the AC50 is the concentration giving half of the maximal activity seen. Low values mean greater potency, high ones weaker potency. With `CC(=N)N1CC[C@H](SC2=C(C(=O)O)N3C(=O)[C@H]([C@@H](C)O)[C@H]3C2)C1`, the half-maximal activity concentration (AC50) was 300 µM in experiment [1], above 300 µM at Glucocorticoid receptor and above 300 µM in experiment [2].

For the molecule `CC1(C)S[C@@H]2[C@H](NC(=O)[C@H](N)c3ccc(O)cc3)C(=O)N2[C@H]1C(=O)O` [AMOXICILLIN], the values for the AC50 in experiment [3] and in experiment [4] were above 30 µM and above 10 µM, respectively.

Regarding `O=C1CN2Cc3c(ccc(Cl)c3Cl)N=C2N1` [ANAGRELIDE], in experiment [1], the AC50 was above 10 µM. The same measure, in the same setting: in the case of `CNCC[C@@H](Oc1ccccc1C)c1ccccc1` [ATOMOXETINE] it was 23 µM. As to `CCc1oc2ccccc2c1C(=O)c1cc(Br)c(O)c(Br)c1` [BENZBROMARONE], the AC50 on Glucocorticoid receptor was above 30 µM; in experiment [4], 0.0373 µM. Take `C=C(C)[C@@H]1CCC(C)=C[C@H]1c1c(O)cc(CCCCC)cc1O` [CANNABIDIOL]: the AC50 (in experiment [1]; at Glucocorticoid receptor) was above 30 µM throughout.

In the case of `CO/N=C(\C(=O)N[C@@H]1C(=O)N2C(C(=O)O)=C(COC(N)=O)CS[C@H]12)c1ccco1` [CEFUROXIME], the AC50 in experiment [1] and in experiment [2] was above 30 µM throughout. Regarding `[H]/N=C(\N/C(=N/[H])NCCCCCCNC(=N)NC(=N)Nc1ccc(Cl)cc1)Nc1ccc(Cl)cc1` [CHLORHEXIDINE], the AC50 in experiment [1] came out at 2.4 µM. On to `Clc1cccc(Cl)c1N=C1NCCN1` [CLONIDINE], for which the figures for the concentration at half-maximal activity (AC50) in experiment [3] and in experiment [4] were above 30 µM and above 10 µM, respectively.

Turning to `CN1C[C@H](C(=O)N[C@]2(C)O[C@@]3(O)[C@@H]4CCCN4C(=O)[C@H](Cc4ccccc4)N3C2=O)C[C@@H]2c3cccc4[nH]cc(c34)C[C@H]21` [DIHYDROERGOTAMINE], the AC50 in experiment [3] was above 30 µM; in experiment [4], above 10 µM.

In experiment [1], `CNCC[C@H](Oc1cccc2ccccc12)c1cccs1` [DULOXETINE] displayed a concentration at half-maximal activity (AC50) of 3.9 µM. Consider `C#Cc1cccc(Nc2ncnc3cc(OCCOC)c(OCCOC)cc23)c1` [ERLOTINIB], for which the AC50 (in experiment [1]; on Glucocorticoid receptor; in experiment [2]) was above 30 µM throughout. As for `CC1(C)O[C@@H]2C[C@H]3[C@@H]4C[C@H](F)C5=CC(=O)C=C[C@]5(C)[C@H]4[C@@H](O)C[C@]3(C)[C@]2(C(=O)CO)O1` [FLUNISOLIDE], the values for the AC50 (at Glucocorticoid receptor; in experiment [2]) were 0.021 µM and above 30 µM, respectively.

`CCC(=O)O[C@@H](O[P@](=O)(CCCCc1ccccc1)CC(=O)N1C[C@H](C2CCCCC2)C[C@H]1C(=O)O)C(C)C` [FOSINOPRIL] gave an AC50 in experiment [1] above 30 µM.

As for `C[C@H]1Oc2cc(cnc2N)-c2c(nn(C)c2C#N)CN(C)C(=O)c2ccc(F)cc21` [LORLATINIB], the AC50 (in experiment [1]; on Glucocorticoid receptor; in experiment [2]) was above 30 µM throughout.

Take `Cc1cnc(NC(=O)C2=C(O)c3ccccc3S(=O)(=O)N2C)s1` [MELOXICAM]: the AC50 in experiment [3] is above 30 µM; in experiment [4], above 10 µM. `CC(=O)/N=c1/sc(S(N)(=O)=O)nn1C` [METHAZOLAMIDE] yielded an AC50 in experiment [1] above 10 µM. Regarding `CC(=O)Oc1ccccc1C(=O)Nc1ncc([N+](=O)[O-])s1` [NITAZOXANIDE], in experiment [1], the activity was half-maximal at 8 µM (AC50). `CNCCC=C1c2ccccc2CCc2ccccc21` [NORTRIPTYLINE] showed a half-maximal activity concentration (AC50) in experiment [4] of 0.632 µM. For `CN(C)c1cc(CNCC(C)(C)C)c(O)c2c1C[C@H]1C[C@H]3[C@H](N(C)C)C(O)=C(C(N)=O)C(=O)[C@@]3(O)C(O)=C1C2=O` [OMADACYCLINE], the concentration at half-maximal activity (AC50) in experiment [1] was 30 µM; in experiment [2], above 30 µM; in experiment [4], 4.25 µM. Take `COc1ccnc(C[S+]([O-])c2nc3ccc(OC(F)F)cc3[nH]2)c1OC` (configuration not stated) [PANTOPRAZOLE]: the values for the AC50 in experiment [3] and in experiment [4] were above 30 µM and above 10 µM, respectively. As for `CNC[C@H](O)c1cccc(O)c1` [PHENYLEPHRINE], the AC50 in experiment [3] was above 30 µM; in experiment [4], above 10 µM.

`O=C1NC(=O)C(c2ccccc2)(c2ccccc2)N1` [PHENYTOIN]: the AC50 (in experiment [3]; on Glucocorticoid receptor; in experiment [2]) was above 30 µM each time. As for `CC(C)C[C@H](CN)CC(=O)O` [PREGABALIN], the AC50 (in experiment [1]; in experiment [3]; at Glucocorticoid receptor; in experiment [2]) was above 30 µM each time. Regarding `CNC(=O)c1cc(Oc2ccc(NC(=O)Nc3ccc(Cl)c(C(F)(F)F)c3)c(F)c2)ccn1` [REGORAFENIB], at Glucocorticoid receptor, the AC50 is above 30 µM.

Take `CCOc1cc(CC(=O)N[C@@H](CC(C)C)c2ccccc2N2CCCCC2)ccc1C(=O)O` [REPAGLINIDE]: the AC50 (in experiment [1]; at Glucocorticoid receptor; in experiment [2]) was above 30 µM throughout. Take `O=C(Nc1c(Cl)cncc1Cl)c1ccc(OC(F)F)c(OCC2CC2)c1` [ROFLUMILAST]: in experiment [1], the concentration at half-maximal activity (AC50) is above 30 µM.

For the molecule `CCCN(CCc1cccs1)[C@H]1CCc2c(O)cccc2C1` [ROTIGOTINE], the results for the concentration at half-maximal activity (AC50) (in experiment [1]; on Glucocorticoid receptor; in experiment [2]) were 0.13 µM, above 30 µM and above 30 µM, respectively. Regarding `CC[C@H]1OC(=O)[C@H](C)[C@@H](O[C@H]2C[C@@](C)(OC)[C@@H](O)[C@H](C)O2)[C@H](C)[C@@H](O[C@@H]2O[C@H](C)C[C@H](N(C)C)[C@H]2O)[C@](C)(O)C[C@@H](C)/C(=N\OCOCCOC)[C@H](C)[C@@H](O)[C@]1(C)O` [ROXITHROMYCIN], the AC50 (on Glucocorticoid receptor; in experiment [2]) was above 30 µM throughout. For the molecule `CC(C)N(CCCCOCC(=O)NS(C)(=O)=O)c1cnc(-c2ccccc2)c(-c2ccccc2)n1` [SELEXIPAG], the AC50 in experiment [1] was above 30 µM.

With `CCCCNc1ccc(C(=O)OCCN(C)C)cc1` [TETRACAINE], the AC50 is above 30 µM in experiment [3] and above 10 µM in experiment [4].

On to `Cn1c(=O)c2[nH]cnc2n(C)c1=O` [THEOPHYLLINE], for which the figures for the half-maximal activity concentration (AC50) in experiment [3] and in experiment [4] were above 30 µM and above 10 µM, respectively. In the case of `CN1CCN(CCCN2c3ccccc3Sc3ccc(S(=O)(=O)N(C)C)cc32)CC1` [THIOPROPERAZINE], in experiment [1], the AC50 was found to be 0.15 µM. As to `CC1(C)O[C@@H]2[C@@H](CO[C@@]3(COS(N)(=O)=O)OC(C)(C)O[C@@H]23)O1` [TOPIRAMATE], the half-maximal activity concentration (AC50) is above 10 µM in experiment [1], above 30 µM in experiment [3] and above 10 µM in experiment [4].

`Cc1cc(CC(=O)O)n(C)c1C(=O)c1ccc(Cl)cc1` [ZOMEPIRAC] yielded an AC50 in experiment [1] above 30 µM.
